Several values for one entry are separate records, joined by “and”; a condition that tells them apart may be missing. Identical values can stand only once.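 96-well plates; 48 h exposure; 5 concentrations. Endpoints by linear interpolation between flanking doses. Not reached: highest tested concentration assigned. GI50 = concentration required for 50% inhibition of growth. TGI denotes the concentration required for complete inhibition of growth.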
What was measured:
Assay in all cases: growth of human tumour cells (NCI), 48 h
[1] = tested on: NCI-H522 lung
[2] = tested on: OVCAR-8 ovarian
[3] = tested on: M14 melanoma
[4] = tested on: SF-295 CNS
[5] = tested on: SNB-19 CNS
[6] = tested on: SNB-75 CNS
[7] = tested on: DU-145 prostate
[8] = tested on: SN12C renal
[9] = tested on: MOLT-4 leukemia
[10] = tested on: RXF 393 renal

| Compound | GI50 [1] | TGI [1] | GI50 [2] | TGI [2] | GI50 [3] | TGI [3] | GI50 [4] | TGI [4] | GI50 [5] | TGI [5] | GI50 [6] | TGI [6] | GI50 [7] | TGI [7] | GI50 [8] | TGI [8] | GI50 [9] | TGI [9] | GI50 [10] | TGI [10] |
| --- | --- | --- | --- | --- | --- | --- | --- | --- | --- | --- | --- | --- | --- | --- | --- | --- | --- | --- | --- | --- |
| CN1CCN(c2ccc(C(=O)Nc3n[nH]c4ccc(Cc5cc(F)cc(F)c5)cc34)c(NC3CCOCC3)c2)CC1 | 1.6 µM and 1.7 µM | 3.36 µM and 3.24 µM | 1.73 µM | > 10 µM and 3.48 µM | 1.58 µM and 1.69 µM | 3.2 µM and 3.4 µM | 3.94 µM and 1.45 µM | > 10 µM and 3.11 µM | 4.24 µM and 1.79 µM | > 10 µM and 3.53 µM | 1.05 µM | 2.36 µM | 4.22 µM and 1.65 µM | > 10 µM and 3.04 µM | 2.6 µM and 1.34 µM | > 10 µM and 2.93 µM | 2.18 µM and 1.82 µM | 7.18 µM and 4.42 µM | 1.17 µM | 2.69 µM |
| Cc1c2cc[nH]c(=O)c2c(C)c2c1[nH]c1cc(OCCN3CCN(C)CC3)ccc12 | 0.718 µM | 2.76 µM | 0.457 µM | 6.08 µM | 1.2 µM | 2.94 µM | 0.788 µM | 7.76 µM | 0.946 µM | 11.2 µM | 1.23 µM | 6.81 µM | 0.813 µM | 8.97 µM | 0.389 µM | 3.31 µM | 0.456 µM | 5.51 µM | 1.21 µM | 2.72 µM |
| O=C(O)CSCc1cccc2ccccc12 |  | > 100 µM |  | > 100 µM |  | > 100 µM |  | > 100 µM |  | > 100 µM |  | > 100 µM |  | > 100 µM |  | > 100 µM |  | > 100 µM |  | > 100 µM |
| CNC(=O)c1cc(COc2nnc(Nc3ccc(Cl)cc3)c3ccoc23)ccn1 | 2.85 µM and 8.83 µM | 11.9 µM and > 10 µM | 3.66 µM and 5.78 µM | 17.1 µM and > 10 µM | 15.7 µM and > 10 µM | 54.9 µM and > 10 µM | 6.39 µM and > 10 µM | 24.9 µM and > 10 µM | 2.88 µM and > 10 µM | 21.4 µM and > 10 µM | 0.769 µM and 2.78 µM | 4.71 µM and > 10 µM | 9.43 µM and > 10 µM | 26 µM and > 10 µM | 8.86 µM and > 10 µM | 27.2 µM and > 10 µM | 22.6 µM and > 10 µM | > 81.3 µM | 2.99 µM and 9.09 µM | 11 µM and > 10 µM |
| COc1cc2c(cc1OC)C13CCN4C=C5CCOC6CC(=O)N2C1C6C5CC43 (stereo unspecified) |  | > 100 µM |  | > 100 µM |  | > 100 µM |  | > 100 µM |  | > 100 µM |  | > 100 µM |  | > 100 µM |  | > 100 µM |  | > 100 µM |  | > 100 µM |
| Cc1cc(C)nc(NC(N)=NCCc2ccccc2)n1 | 6.02 µM | 65.9 µM | 3.69 µM | 34.8 µM | 2.8 µM | 24.2 µM | 1.64 µM | 5.44 µM | 4.55 µM | > 100 µM | 2.08 µM | 9.75 µM | 3.4 µM | > 100 µM | 3.2 µM | 35.8 µM | 6.01 µM | > 100 µM | 7.22 µM | 77.2 µM |
| O=C(c1ccccc1)c1c(NCC(O)CN2CCCC2)n(Cc2ccccc2)c(=O)n(Cc2ccccc2)c1=O (stereo unspecified) | 19.8 µM | 35.6 µM | 18.5 µM | 36.2 µM | 17.5 µM | 33.9 µM | 18 µM | 33.7 µM | 63.4 µM | > 100 µM | 16.9 µM | 47.3 µM | 17.8 µM | 34.7 µM | 19.3 µM | 39.1 µM | 19.7 µM | > 100 µM | 21.6 µM | 53.3 µM |
| CN(C)CCCOc1ccccc1NC1=C(Cl)C(=O)C(Nc2ccccc2OCCCN(C)C)=C(Cl)C1=O | 0.17 µM | 0.383 µM | 0.301 µM | 0.9 µM | 1.6 µM | 3.16 µM | 1.53 µM | 2.9 µM | 1.57 µM | 3.02 µM | 1.62 µM | 3.02 µM | 0.709 µM | 1.77 µM | 0.165 µM | 0.319 µM | 0.223 µM | 0.578 µM | 1.17 µM | 2.43 µM |
| C(=Nc1ccccc1)C1CCCC[N-]1.C(=Nc1ccccc1)C1CCCC[N-]1.[Cu+2].[O-][Cl+3]([O-])([O-])O (stereo unspecified) | 13.3 µM | 52.1 µM | > 39.7 µM | > 95.2 µM | 7.4 µM | 27.9 µM | 3.13 µM | 18.8 µM | 9.94 µM | 38.4 µM | 23.6 µM | 59 µM | 8.48 µM | 36.9 µM | 15.4 µM | 36.1 µM | 4.16 µM | 11.7 µM | 38.2 µM | > 100 µM |
| Cc1ccc(C(=O)N(CCCN)[C@@H](c2nc3cc(Cl)ccc3c(=O)n2Cc2ccccc2)C(C)C)cc1 | < 0.01 µM |  | < 0.01 µM | 1.52 µM and 2.11 µM | < 0.01 µM | < 0.01 µM | < 0.01 µM |  | < 0.01 µM | 2.12 µM and 1.9 µM | < 0.01 µM | 1.56 µM and 1.37 µM | < 0.01 µM |  | < 0.01 µM | 2.28 µM and 1.83 µM | < 0.01 µM | 3.87 µM and 1.45 µM | < 0.01 µM |  |
| COC1=CC(c2ccc[nH]2)=N/C1=C\c1[nH]c(C)c(C(=O)OCc2ccccc2)c1C | 0.0968 µM | 1.15 µM | 0.11 µM | 1.75 µM | 0.0448 µM | 0.817 µM | 0.17 µM | 0.827 µM | 0.606 µM | 29.2 µM | 0.127 µM | 0.632 µM | 0.0917 µM | 1.92 µM | 0.0849 µM | 1.88 µM | 0.0513 µM | 4.61 µM | 0.116 µM | 1.41 µM |
| CCCN(CCC)CCCNCc1cc(I)cc(C)c1O | 16.9 µM | 31.1 µM | 17.4 µM | 35.7 µM | 12.8 µM | 25.4 µM | 13.7 µM | 27 µM | 18.2 µM | 40.8 µM | 14.6 µM | 29 µM | 19.4 µM | 42 µM | 28.7 µM | > 100 µM | 10.7 µM | 23.4 µM | 9.91 µM | 23.2 µM |
| COc1ccc2c(c1)C(=O)c1c-2n(CCCN)c(=O)c2ccccc12 | 0.0123 µM | 0.505 µM | 0.0113 µM | 0.162 µM | 0.0951 µM | 1.53 µM | 0.015 µM | 0.657 µM | < 0.0198 µM | 0.105 µM | 0.0151 µM | 1.54 µM | 0.0179 µM | 0.293 µM | < 0.016 µM | 0.118 µM | < 0.01 µM | < 0.0243 µM | 0.137 µM | 0.91 µM |
| CO[C@H](C(=O)[C@@H](O)[C@@H](C)O)[C@@H]1Cc2cc3cc(O[C@H]4C[C@@H](O[C@H]5C[C@@H](O)[C@H](O)C(C)O5)[C@H](O)C(C)O4)c(C)c(O)c3c(O)c2C(=O)[C@H]1O[C@H]1C[C@@H](O[C@H]2C[C@@H](O[C@H]3C[C@@H](OC)[C@H](O)C(C)O3)[C@@H](O)C(C)O2)C(O)(O)C(C)O1 (stereo partly specified) | 0.0168 µM | 0.304 µM | 0.225 µM | > 25 µM | 0.275 µM | 6.18 µM | 0.0601 µM | > 25 µM | 0.0971 µM | > 25 µM | 0.148 µM | 3.53 µM | 0.237 µM | > 25 µM | 0.112 µM | > 25 µM | 0.57 µM | > 25 µM | 0.0525 µM | 0.306 µM |
| Cc1ccc(S(=O)(=O)N/N=C/c2oc(-c3cccc([N+](=O)[O-])c3)c(-c3cccc([N+](=O)[O-])c3)c2[N+](=O)[O-])cc1 |  | 28.4 µM |  | > 100 µM |  | > 100 µM |  | > 100 µM |  | > 100 µM |  | > 100 µM |  | > 100 µM |  | > 100 µM |  | 77.9 µM |  | 90.1 µM |
| Cc1ccccc1NC(=S)Nc1ccccn1 | > 100 µM | > 100 µM | > 100 µM | > 100 µM | > 100 µM | > 100 µM | > 100 µM | > 100 µM | > 100 µM | > 100 µM | > 100 µM | > 100 µM | > 100 µM | > 100 µM | > 100 µM | > 100 µM | > 100 µM | > 100 µM | 13.9 µM | > 100 µM |
